Patent US20250127896A1, “CHIMERIC TIM4 RECEPTORS AND USES THEREOF” (CERO THERAPEUTICS HOLDINGS, INC., priority 2021, published 2025)

Columns and labels:
Type in all cases: cell-based
[1] = tested on: NSCLC H1975 cells; assay: H1975 NSCLC cell growth with CER1236 T cells and osimertinib (Incucyte); settings: 100 nM osimertinib 24 h, then 4.88 nM, E:T 0.25:1, 120 h
Protocol: FIG. 39: Graph showing NSCLC H1975 cell growth for cells pretreated with 100 nM osimertinib or vehicle and then co-cultured with CER1236 T cells.
CER1236 T cells were tested in combination with EGFR tyrosine kinase inhibitor osimertinib on a non-small cell lung cancer (NSCLC) cell line. Ten-thousand NSCLC H1975 cells were cultured for 24 h with 100 nM osimertinib or vehicle (DMSO) and then co-cultured with 2500 CER1236 T cells at an Effector:Target cell ratio of 0.25:1 in the presence or absence of 4.88 nM osimertinib or vehicle. Tumor cell growth was monitored with indicated for 120 h in an Incucyte assay.

[2] = tested on: phosphatidylserine (PS); assay: Recursive stimulation plate assay: IFN-γ on serial phosphatidylserine exposure; settings: 3 serial rounds
Description: FIGS. 19A-19C: CER T cells are activated and produce IFN-γ in response to phosphatidylserine engagement in a cell-free in vitro system. FIG. 19A: IFN-γ production in response phosphatidylserine (PS). IFN-γ production was induced in CER-1236 and CER-1234 T cells stimulated with PS (FIG. 19A), but not with phosphatidylethanolamine (PE) (FIG. 19B). […] FIG. 19C: CER1236 T cells are capable of recursive stimulation in vitro. Recursive IFN-γ induction with 3 serial stimulations at the indicated time points following a 24-hour rest after the first stimulation.
FIG. 43 is a schematic depicting assay design for measuring CER1236 reactivation in response to stimulus by repeated phosphatidylserine stimulation of CER1236 T cells and measurement of IFNγ production.
CER T-cell activation was assessed by measuring induction of IFN-gamma by plate- and cell-based assays. […] CER T cells were added and IFN-γ levels were measured 24 hours after ligand exposure by ELISA. EC50 concentrations were determined by nonlinear regression (agonist vs. response-variable slope (4 parameters)). […] Cell-based assay: cytokine induction was assessed by multiparametric ELISA using conditioned supernatants harvested after 120 hours from the cytotoxicity assay described below.

[3] = tested on: REC-1 cells; assay: Cytokine induction in CER T / REC-1 co-cultures (multiparametric ELISA); settings: for cytokine response (GrB, IFN-γ, TNF-α) with BTK inhibitor: ibrutinib-induced phosphatidylserine exposure
Protocol: FIGS. 16A-16H: Induction of Cytokines in Ibrutinib-Treated Co-Cultures of CER1183 and CER1234 T cells and REC-1 Target Cells. Samples depicted in bar graphs from left to right, untransduced, CER-1183, and CER-1234. FIG. 16A: TNFα induction. FIG. 16B: IL-2 induction. FIG. 16C: IFNγ. FIG. 16D: IL-5 induction. FIG. 16E: IL-6 induction. FIG. 16F: IL-10 induction. FIG. 16G: IL-4 induction. FIG. 16H: granzyme B induction.
Cytokine induction was assessed by multiparametric ELISA using conditioned supernatants harvested after 96 hours in the cytotoxicity assay described above.
CER T-cell activation was assessed by measuring induction of IFN-gamma by plate- and cell-based assays. Single induction plate assay: varying concentrations of phosphatidylserine (PS) or phosphatidylethanolamine (PE), a control membrane phospholipid not recognized by wild type TIM-4 (wtTIM-4), were coated onto high-binding tissue culture plates. CER T cells were added and IFN-γ levels were measured 24 hours after ligand exposure by ELISA. EC50 concentrations were determined by nonlinear regression (agonist vs. response-variable slope (4 parameters)). Induction by recursive stimulation plate assay: CER T cells were added to phosphatidylserine coated plates (2.5-20 μg/mL PS coating). Five days later, CER T cells were transferred to uncoated plates with fresh T cell optimizer media for 24 hours. Then, CER T cells were transferred again to a fresh PS coated plate. Supernatant was collected to assess IFN-γ induction by ELISA at various timepoints during re-stimulation (24, 72, and 120 hours). Cell-based assay: cytokine induction was assessed by multiparametric ELISA using conditioned supernatants harvested after 120 hours from the cytotoxicity assay described below.

[4] = tested on: REC-1 cells; assay: Phagocytosis of pHrodo-labeled ibrutinib-treated REC-1 cells by CER T cells
Description: FIG. 13A: Representative flow cytometry histograms showing engulfment of pHrodo red-labeled REC-1 target cells by CER1234, CER1161, and CER1183 T cells. FIG. 13B: Graphical summary of flow cytometry data showing engulfment of pHrodo red-labeled REC-1 target cells by CER1234, CER1161, and CER1183 T cells. * P<0.01, ** P<0.001, *** P<0.0001; mean+SD, n=4. FIG. 13C: Representative fluorescence microscopy images (at 40×) showing engulfment of pHrodo red-labeled REC-1 target cells by CER1234, CER1161, and CER1183 T cells. FIG. 13D: Engulfed pHrodo-green-labeled REC-1 tumor fragments co-localize into Lyso-tracker red-labeled lysosomes.
Phagocytosis was assessed in co-culture assays of REC-1 cells with CER T cells. […] The percentage of pHrodo red-positive cells was determined by flow cytometry after 16 or 40 hours of co-culture. The localization of tumor fragments in CER T-cell lysosomal compartments was assessed in a separate experiment with REC-1 cells labeled with pHrodo green; following co-culture, all cells were labeled with Lyso-tracker red. Visualization of engulfment was performed by fluorescence microscopy. 1-way ANOVA with Dunnett's post hoc test was performed compared with untransduced T cells.

| Substance | H1975 tumor cell growth, combination with osimertinib [1] | IFN-γ response upon serial phosphatidylserine exposure [2] | IL-2, IL-4 and IL-6 ([3]; co-culture with REC-1 cells, 0.5 μM ibrutinib) | cytokine induction: TNF-α, IFN-γ, IL-10, IL-5, granzyme B ([3]; co-culture with REC-1 cells, 0.5 μM ibrutinib, 96 hours) | cytokine response (GrB, IFN-γ, TNF-α) with BTK inhibitor [3] | cytokine response (GrB, IFN-γ, TNF-α) with BTK inhibitor ([3]; listed as CER1234) | localization of internalized fragments ([4]; BTK inhibitor-primed REC-1 cells) | engulfment of pHrodo red+ target cells ([4]; REC-1 pretreated 10 μM ibrutinib, 16 and 40 hours of co-culture) |
| --- | --- | --- | --- | --- | --- | --- | --- | --- |
| CER-1236: chimeric Tim4 receptor: Tim4 binding domain-CD28tm-CD28-CD3z-TLR2 TIR, SEQ ID NO:19; tested as transduced T cells | synergizes to inhibit H1975 NSCLC cells in vitro | elicited repeated IFN-γ response upon 3 serial rounds of exposure to phosphatidylserine | – | – | – | – | – | – |
| CER-1234: chimeric Tim4 receptor: Tim4 binding domain-CD28tm-CD28-TLR2 TIR-CD3z, SEQ ID NO:18; tested as transduced T cells | – | – | nominally increased | induced | production of Th1 cytokines | enhances CER1234 T cell cytokine response | internalized fragments were localized to lysosomal compartments | increased engulfment of pHrodo red+target cells relative to untransduced T cells |
